{"source": "patent US9248111B2", "about": "“Therapeutic approaches for treating parkinson's disease” (PHARNEXT, priority 2011, dated 2016)", "format_in_all_cases": "cell-based, rat", "key": {"neuronal cortical cells": {"system": "neuronal cortical cells", "test": "Glutamate toxicity assay, neurite network (neurofilament immunostaining) of primary cortical neurons", "details": "alone or combined", "description": "Glutamate toxicity is involved in the pathogenesis of Parkinson's disease. In this set of experiment, candidate compounds have been tested for their ability to prevent or reduce the toxic effects of glutamate toxicity on neuronal cells. The drugs are first tested individually, followed by assays of their combinatorial action.\nThe efficacy of drug combinations of the invention is assessed on primary cortical neuron cells.\nRat cortical neurons were cultured as described by Singer et al.. Briefly pregnant female rats of 15 days gestation were killed by cervical dislocation (Rats Wistar) and the foetuses were removed from the uterus. The cortex was removed and placed in ice-cold medium of Leibovitz (L15) containing 2% of Penicillin 10.000 U/ml and Streptomycin 10 mg/ml and 1% of bovine serum albumin (BSA). Cortices were dissociated by trypsin for 20 min at 37° C. (0.05%). The reaction was stopped by the addition of Dulbecco's modified Eagle's medium (DMEM) containing DNaseI grade II and 10% of foetal calf serum (FCS). Cells were then mechanically dissociated by 3 serial passages through a 10 ml pipette and centrifuged at 515 g for 10 min at +4° C. The supernatant was discarded and the pellet of cells was re-suspended in a defined culture medium consisting of Neurobasal supplemented with B27 (2%), L-glutamine (0.2 mM), 2% of PS solution and 10 ng/ml of BDNF. Viable cells were counted in a Neubauer cytometer using the trypan blue exclusion test. The cells were seeded at a density of 30 000 cells/well in 96 well-plates (wells were pre-coated with poly-L-lysine (10 μg/ml)) and were cultured at +37° C. in a humidified air (95%)/CO2 (5%) atmosphere.\nAfter 12 days of neuron culture, drugs of the candidate combinations are solved in culture medium (+0.1% DMSO). Candidate combinations are then pre-incubated with neurons for 1 hour before the glutamate injury. One hour after incubation with, glutamate is added for 20 min, to a final concentration of 40 μM, in presence of candidate combinations, in order to avoid further drug dilutions. At the end of the incubation, medium is changed with medium with candidate combination but without glutamate. The culture is fixed 24 hours after glutamate injury. MK801 (dizocilpinehydrogen maleate, 77086-22-7-20 μM) is used as a positive control.\nAfter permeabilization with saponin (Sigma), cells are blocked for 2 h with PBS containing 10% goat serum, then the cells are incubated with mouse monoclonal primary antibody against Neurofilament antibody (NF, Sigma).\nNuclei of cells are labeled by a fluorescent marker (Hoechst solution, SIGMA), and neurite network quantified. Six wells per condition are used to assess neuronal survival in 3 different cultures."}, "cortical neuronal cells": {"system": "cortical neuronal cells", "test": "Oxygen and glucose deprivation assay (in vitro model of ischemia), neurite network by MAP2", "details": "alone or combined", "description": "B—Protective Effect Against Ischemia/Hypoxia Induced Neuronal Cell Death Rat Neuronal Cortical Cells Preparation\nCells are prepared as previously.\nThe neuroprotective effect of compounds is assessed by quantification of the neurite network using MAP2 antibody. Riluzole, a neuroprotective drug, (Riluteck®, 5 μM) is used as positive control.\nAfter 10 days of neuron culture, candidate drugs are solved in culture medium (+0.1% DMSO) and then pre-incubated with neurons for 1 hour before the oxygen and glucose deprivation. One hour after candidate drug incubation, the medium is removed and fresh medium without glucose is added. This medium is composed by DMEM without glucose (Invitrogen) supplemented with 2% B27, 0.2 mM L-glutamine, 1% PS solution, 10 ng/ml of BDNF. The cells are transferred into an anaerobic incubator with 95% N2 and 5% CO2 at 37° C.\nAfter 2 hours, 25 mM of D-Glucose will be added in culture medium and cells are transferred in classic incubator with 95% air/5% CO2 at 37° C. After 24 hours of oxygen glucose reperfusion, cells are fixed by a cold solution of alcohol/acetic acid during 5 minutes.\nAfter permeabilization with saponin (Sigma), cells are blocked for 2 hours with PBS containing 10% goat serum, then the cells are incubated with mouse monoclonal primary antibody against MAP2 (MAP2, Sigma).\nNuclei of cells are labelled by a fluorescent marker (Hoechst solution, SIGMA). Six wells per condition are used to assess neuronal survival in 3 different cultures.\nFor each condition 2×10 pictures per well are taken and analyzed using InCell Analyzer TM 1000 (GE Healthcare) with 20× magnification."}, "[1]": {"system": "dopaminergic neuronal cells", "test": "6-OHDA injury on mesencephalic dopaminergic neurons, number of TH positive neurons", "description": "6-hydroxydopamine (6-OHDA) is a neurotoxic drug which selectively initiates neuronal degeneration of dopaminergic neurons by generating reactive oxygen species and mitochondrial respiratory dysfunction which are thought to mirror events occurring in Parkinsonian brain. 6-OHDA toxicity is commonly used in vitro and in vivo to study Parkinsonism.\nRat dopaminergic neurons were cultured as described by Schinelli et al.. Pregnant female rats of 15 days gestation were killed by cervical dislocation (Rats Wistar; Janvier) and the foetuses removed from the uterus. The embryonic midbrains were removed and placed in ice-cold medium of Leibovitz (L15; PanBiotech) containing 2% of Penicillin-Streptomycin (PS; PanBiotech) and 1% of bovine serum albumin (BSA; PanBiotech). Only the ventral portions of the mesencephalic flexure were used for the cell preparations as this is the region of the developing brain rich in dopaminergic neurons. The midbrains were dissociated by trypsinisation for 20 min at 37° C. (Trypsin EDTA 1×; PanBiotech). The reaction is stopped by the addition of Dulbecco's modified Eagle's medium (DMEM; PanBiotech) containing DNAase I grade II (0.1 mg/ml; PanBiotech) and 10% of foetal calf serum (FCS; Invitrogen). Cells were then mechanically dissociated by 3 passages through a 10 ml pipette and centrifuged at 180×g for 10 min at +4° C. on a layer of BSA (3.5%) in L15 medium. The supernatant was discarded and the cells of pellet were re-suspended in a defined culture medium consisting of Neurobasal (Invitrogen) supplemented with B27 (2%; Invitrogen), L-glutamine (2 mM; PanBiotech) and 2% of PS solution and 10 ng/ml of Brain-derived neurotrophic factor (BDNF, PanBiotech) and 1 ng/ml of Glial-Derived Neurotrophic Factor (GDNF, PanBiotech). Viable cells were counted in a Neubauer cytometer using the trypan blue exclusion test. The cells were seeded at a density of 40 000 cells/well in 96 well-plates (pre-coated with poly-L-lysine (Greiner)) and are cultured at 37° C. in a humidified air (95%)/CO2 (5%) atmosphere. Half of the medium was changed every 2 days with fresh medium. Five to six percent of the neuronal cell population were dopaminergic neurons.\nOn day 6 of culture, the medium was removed and fresh medium was added, without or with 6-OHDA at the following concentrations: 20 μM during 48 hours diluted in control medium. Test compounds were pre-incubated for 1 h before the 6-OHDA application during 48 hours.\nAfter 48 hours of intoxication with 6-OHDA, cells were fixed by a solution of 4% paraformaldehyde (Sigma) in PBS, pH=7.3 for 20 min at room temperature. The cells were washed again twice in PBS, and then permeabilized and non-specific sites were blocked with a solution of PBS containing 0.1% of saponin (Sigma) and 1% FCS for 15 min at room temperature. Then, cells were incubated with Monoclonal Anti-Tyrosine Hydroxylase antibody produced in mouse (TH, Sigma) at dilution of 1/1000 in PBS containing 1% FCS, 0.1% saponin, for 2 hours at room temperature.\nFor each condition, 2×10 pictures (representing ˜80% of total well area) per well were taken using InCell Analyzer™ 1000 (GE Healthcare) with 10× magnification. All images were taken in the same conditions. […]\nData are expressed in percentage of control conditions (no intoxication, no 6-OHDA=100%) in order to express the 6-OHDA injury. All values are expressed as mean+/−SEM (s.e. mean) of the 3 cultures (n=6 wells per condition per culture). […]"}, "[2]": {"details": "FIG. 3: baclofen 400 nM, acamprosate 1.6 nM"}, "[3]": {"details": "FIG. 4: baclofen 80 nM, acamprosate 0.32 nM"}, "[4]": {"details": "FIG. 12A: baclofen 32 nM alone, acamprosate 10 pM alone"}, "[5]": {"details": "FIG. 12B: baclofen 32 nM alone, acamprosate 4 pM alone"}, "[6]": {"details": "FIG. 1: cinacalcet 64 pM, mexiletine 25.6 pM"}, "[7]": {"details": "FIG. 6: cinacalcet 64 pM, mexiletine 25.6 pM"}, "[8]": {"details": "FIG. 2: sulfisoxazole 6.8 nM, torasemide 400 nM"}, "[9]": {"details": "FIG. 5: sulfisoxazole 1.36 nM, torasemide 80 nM"}}}
{"molecule": "CC(=O)NCCCS(=O)(=O)O", "note": "[acamprosate]", "values": [{"measurement": "prevention of glutamate intoxication", "setting": "neuronal cortical cells; [2]", "value": "no significant effect"}, {"measurement": "protection against ischemic injury", "setting": "cortical neuronal cells; [3]", "value": "no significant protection"}, {"measurement": "protection from 6-OHDA injury, single drugs", "setting": "[1]; [4]", "value": "low effect"}, {"measurement": "protection from 6-OHDA injury, single drugs", "setting": "[1]; [5]", "value": "low effect"}]}
{"molecule": "NCC(CC(=O)O)c1ccc(Cl)cc1", "note": "(centres unmarked) [baclofen]", "values": [{"measurement": "prevention of glutamate intoxication", "setting": "neuronal cortical cells; [2]", "value": "no significant effect"}, {"measurement": "protection against ischemic injury", "setting": "cortical neuronal cells; [3]", "value": "no significant protection"}, {"measurement": "protection from 6-OHDA injury, single drugs", "setting": "[1]; [4]", "value": "low effect"}, {"measurement": "protection from 6-OHDA injury, single drugs", "setting": "[1]; [5]", "value": "low effect"}]}
{"molecule": "C[C@@H](NCCCc1cccc(C(F)(F)F)c1)c1cccc2ccccc12", "note": "[cinacalcet]", "values": [{"measurement": "prevention of glutamate intoxication", "setting": "neuronal cortical cells; [6]", "value": "no significant effect"}, {"measurement": "protection against ischemic injury", "setting": "cortical neuronal cells; [7]", "value": "No significant protection"}]}
{"molecule": "Cc1cccc(C)c1OCC(C)N", "note": "(centres unmarked) [mexiletine]", "values": [{"measurement": "prevention of glutamate intoxication", "setting": "neuronal cortical cells; [6]", "value": "no significant effect"}, {"measurement": "protection against ischemic injury", "setting": "cortical neuronal cells; [7]", "value": "No significant protection"}]}
{"molecule": "Cc1noc(NS(=O)(=O)c2ccc(N)cc2)c1C", "note": "[sulfisoxazole]", "values": [{"measurement": "prevention of glutamate intoxication", "setting": "neuronal cortical cells; [8]", "value": "no significant effect"}, {"measurement": "protection against ischemic injury", "setting": "cortical neuronal cells; [9]", "value": "no significant protection"}]}
{"molecule": "Cc1cccc(Nc2ccncc2S(=O)(=O)NC(=O)NC(C)C)c1", "note": "[torasemide]", "values": [{"measurement": "prevention of glutamate intoxication", "setting": "neuronal cortical cells; [8]", "value": "no significant effect"}, {"measurement": "protection against ischemic injury", "setting": "cortical neuronal cells; [9]", "value": "no significant protection"}]}
{"molecule": "BDNF: Brain-derived neurotrophic factor, used as a positive control (protein, UniProt P23560 129-247, looked up, Neurotrophic factor BDNF, Brain-derived neurotrophic factor, used as a positive control) Neurotrophic factor BDNF: HSDPARRGELSVCDSISEWVTAADKKTAVDMSGGTVTVLEKVPVSKGQLKQYFYETKCNPMGYTKEGCRGIDKRHWNSQCRTTQSYVRALTMDSKKRIGWRFIRIDTSCVCTLTIKRGR", "values": [{"measurement": "protection of dopaminergic neurons from 6-OHDA injury", "setting": "[1]; 1.85 nM, one hour pre-treatment, positive control", "value": "significantly protected"}]}
